As a reminder, the IC50 is the concentration that gives 50% inhibition.

Nine molecules from US20210253595A1, “2-Aminopyrimidine Derivative and Preparation Method and Use Thereof” (Etern Biopharma (Shanghai) Co., Ltd., priority 2018, published 2021) can be followed below.

In one assay the target is IDH1 R132C (Homo sapiens, UniProt O75874, R132C). As to the kind of experiment: Effect on IDH1 R132C enzyme activity (NADPH consumption, diaphorase/resazurin fluorescence). To be noted: 80 ng IDH1 R132C, α-KG 2 mM, NADPH 20 μM, 60 min preincubation. Format: biochemical. Here is the method: (§1) Test method: The enzyme activity of IDH1 converting α-KG to 2HG was measured by the consumption of NADPH. After the enzymatic reaction finished, the amount of residual NADPH can be reflected by fluorescence signal generated by the addition of catalytically excessive diphhorase and reazurin.
50 μL mixed liquid of substrate α-KG and NADPH (final concentration of substrate α-KG was 2 mM, final concentration of NADPH was 20 μM), and the plate was incubated in dark for 60 min at room temperature. Detection reaction: 50 μL 1×detection buffer diluted 0.01 unit diabase and 30 μM resazurin were added into each well, and the mixture was incubated in dark at room temperature for 10 min. […] IC50 value was calculated by GraphPad Prism software.
A general note: Alamar Blue is a resazurin reagent that responds to reducing activity.

In another assay the target is IDH1 R132H (Homo sapiens, UniProt O75874, R132H). Kind of assay: Effect on IDH1 R132H enzyme activity (NADPH consumption, diaphorase/resazurin fluorescence). Format: biochemical. To be noted: 100 ng IDH1 R132H, α-KG 1 mM, NADPH 20 μM, 60 min preincubation. Here is the method: as §1
50 μL mixed liquid of substrate α-KG and NADPH (final concentration of substrate α-KG was 1 mM, final concentration of NADPH was 20 μM), and the mixture was incubated in dark for 60 min at room temperature. Detection reaction: 50 μL 1×detection buffer diluted 0.01 unit diabase and 30 μM resazurin were added into each well, and the mixture was incubated in dark at room temperature for 10 min. […] IC50 value was calculated by GraphPad Prism software.

Assay [1] has as its system 2HG of fibrosarcoma cell line HT1080 expressing IDH1 mutant IDH1-R132C. Kind of assay: Inhibition of 2HG of fibrosarcoma cell line HT1080. To be noted: Homo sapiens, HT-1080; HT1080 cells, 48 hours with compound, 2HG in cell supernatant; read-out: HT1080 2HG inhibitory IC50. Format: cell-based. As to the method: In this experiment, the inhibitory activity of the compound of the disclosure on the concentration level of 2HG of the fibrosarcoma cell line HT1080 was determined by the following method.
The cells were digested with trypsin and inoculated into a 24 well cell culture plate with a density of 10000 cells/well. The cells were cultured in a 5% CO2 cell incubator at 37° C. After overnight culture, the test compound was added to the cells. The final concentration of DMSO was 0.1%, and DMSO was used as control. The plate was then placed in a cell incubator and cultured for 48 hours.
Detection of 2HG: 2-HG was measured by PicoProbe™ D-2-Hydroxyglutarate (D2HG) Assay Kit of BioVision. 500 uL cell supernatant was taken from each well and added to a 10 kD centrifuge column, 12000 g, and centrifuged for 10 minutes to remove the effect of enzyme activity. […] IC50 value was calculated by GraphPad Prism software.
The inhibition rate of the sample was obtained by the following formula: […]
IC50 value was calculated by GraphPad Prism software.

Chain of IDH1 R132C (O75874 whole entry R132C): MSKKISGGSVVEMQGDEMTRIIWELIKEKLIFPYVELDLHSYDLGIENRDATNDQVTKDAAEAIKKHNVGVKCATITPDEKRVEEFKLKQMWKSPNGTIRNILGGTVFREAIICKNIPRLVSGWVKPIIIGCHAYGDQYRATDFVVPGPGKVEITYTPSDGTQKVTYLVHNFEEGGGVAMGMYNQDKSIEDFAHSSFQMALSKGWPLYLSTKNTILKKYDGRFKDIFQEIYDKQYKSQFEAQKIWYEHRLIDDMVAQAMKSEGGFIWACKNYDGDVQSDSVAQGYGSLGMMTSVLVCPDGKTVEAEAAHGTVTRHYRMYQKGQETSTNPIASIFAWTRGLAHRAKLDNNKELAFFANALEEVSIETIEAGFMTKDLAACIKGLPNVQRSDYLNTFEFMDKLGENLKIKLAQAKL
Chain of IDH1 R132H (O75874 whole entry R132H): as the sequence (O75874 whole entry R132C) above, with C132H counted along it

For `Cc1ccc2c(c1)CCc1c([C@H](C)Nc3nccc(N4C(=O)OC[C@@H]4[C@H](C)F)n3)ncn1-2` [Compound 23, (R)-4-((S)-1-fluoroethyl)-3-(2-(((S)-1-(7-methyl-4,5-dihydroimidazo[1,5-a]quinolin-3-yl)ethyl)amino)pyrimidin-4-yl)oxazolidin-2-one], the half-inhibitory concentration (IC50) at IDH1 R132C was < 50 nM; against IDH1 R132H it was < 50 nM; in assay [1] it was 22 nM.
With `C[C@H](Nc1nccc(N2C(=O)OC3(COC3)[C@@H]2c2ccccc2)n1)c1ncn2c1CCc1cc(C(F)(F)F)ccc1-2` [Compound 16, (S)-8-phenyl-7-(2-(((S)-1-(7-trifluoromethyl-4,5-dihydroimidazo[1,5-a]quinolin-3-yl)ethyl)amino)pyrimidin-4-yl)-2,5-dioxa-7-azaspiro[3.4]octan-6-one], the IC50 on IDH1 R132C is < 50 nM; against IDH1 R132H, < 50 nM; in assay [1], 140 nM.
As for `C[C@H](Nc1nccc(N2C(=O)OC[C@@H]2[C@H](C)F)n1)c1ncn2c1COc1cc(C3CC3)ccc1-2` [Compound 26, (R)-3-(2-(((S)-1-(7-cyclopropyl-4H-benzo[b]imidazo[1,5-d][1,4]oxazin-3-yl)ethyl)amino)pyrimidin-4-yl)-4-((S)-1-fluoroethyl)oxazolidin-2-one], the IC50 is < 50 nM at IDH1 R132C, < 50 nM on IDH1 R132H and 167 nM in assay [1].
Regarding `C[C@H](Nc1ncc(F)c(N2C(=O)OC[C@@H]2[C@H](C)F)n1)c1ncn2c1CCc1cc(C(F)(F)F)ccc1-2` [Compound 6, (R)-3-(5-fluoro-2-(((S)-1-(7-trifluoromethyl-4,5-dihydroimidazo[1,5-a]quinolin-3-yl)ethyl)amino)pyrimidin-4-yl)-4-((S)-1-fluoroethyl)oxazolidin-2-one], the IC50 against IDH1 R132C is < 50 nM; against IDH1 R132H it was < 50 nM; in assay [1], 20 nM.
In the case of `C[C@H](Nc1nccc(N2C(=O)OC[C@@H]2[C@H](C)F)n1)c1ncn2c1CCCc1cc(C(F)(F)F)ccc1-2` [Compound 13, (R)-4-((S)-1-fluoroethyl)-3-(2-(((S)-1-(8-trifluoromethyl-5,6-dihydro-4H-benzo[f]imidazo[1,5-a]azepin-3-yl)ethyl)amino)pyrimidin-4-yl)oxazolidin-2-one], the IC50 at IDH1 R132C was < 50 nM; on IDH1 R132H it was < 50 nM; in assay [1], 35 nM.
With `CC(C)[C@H]1COC(=O)N1c1ccnc(N[C@@H](C)c2ncn3c2CCc2cc(C(F)(F)F)ccc2-3)n1` [Compound 3, (S)-4-isopropyl-3-(2-(((S)-1-(7-trifluoromethyl-4,5-dihydroimidazo[1,5-a]quinolin-3-yl)ethyl)amino)pyrimidin-4-yl)oxazolidin-2-one], the IC50 at IDH1 R132C is < 50 nM; on IDH1 R132H, < 50 nM; in assay [1], 13 nM.
`C[C@H](Nc1nccc(N2C(=O)OC[C@@H]2[C@H](C)F)n1)c1ncn2c1CCc1cc(C(F)(F)F)ccc1-2` [Compound 5, (R)-4-((S)-1-fluoroethyl)-3-(2-(((S)-1-(7-trifluoromethyl-4,5-dihydroimidazo[1,5-a]quinolin-3-yl)ethyl)amino)pyrimidin-4-yl)oxazolidin-2-one]: the IC50 was < 50 nM against IDH1 R132C, < 50 nM at IDH1 R132H and 16 nM in assay [1].
For the molecule `CC(C)[C@H]1COC(=O)N1c1ccnc(N[C@@H](C)c2ncn3c2CSc2cc(C(F)(F)F)ccc2-3)n1` [Compound 12, (S)-4-isopropyl-3-(2-(((S)-1-(7-trifluoromethyl-4H-benzo[b]imidazo[1,5-d][1,4]thiazin-3-yl)ethyl)amino)pyrimidin-4-yl)oxazolidin-2-one], the IC50 against IDH1 R132C was < 50 nM; against IDH1 R132H, < 50 nM; in assay [1], 24 nM.
In the case of `N#Cc1ccnc(N2C(=O)CC[C@H]2C(=O)N(c2cncc(F)c2)[C@H](C(=O)NC2CC(F)(F)C2)c2ccccc2Cl)c1` [AG120, reference compound], the IC50 in assay [1] stood at 25 nM.
